# From the kinase profiling compilation of Christmann-Franck et al. (2016)
# Key:
# Test in all cases: KINOMEscan competition binding
# Details in all cases: compound 1.0 µM
# PLK4 (human) = PLK4 (human) (UniProt O00444)
# PIK3C2B (human) = PIK3C2B (human) (UniProt O00750)
# CAMK1G (human) = CAMK1G (human) (UniProt Q96NX5)
# NEK6 (human) = NEK6 (human) (UniProt Q9HC98)
# PRKX (human) = PRKX (human) (UniProt P51817)
# AURKC (human) = AURKC (human) (UniProt Q9UQB9)
# BRAF (human) = BRAF (human) (UniProt P15056)
# RIOK1 (human) = RIOK1 (human) (UniProt Q9BRS2)
# Chain of RIOK1 (human) (Q9BRS2 whole entry, looked up): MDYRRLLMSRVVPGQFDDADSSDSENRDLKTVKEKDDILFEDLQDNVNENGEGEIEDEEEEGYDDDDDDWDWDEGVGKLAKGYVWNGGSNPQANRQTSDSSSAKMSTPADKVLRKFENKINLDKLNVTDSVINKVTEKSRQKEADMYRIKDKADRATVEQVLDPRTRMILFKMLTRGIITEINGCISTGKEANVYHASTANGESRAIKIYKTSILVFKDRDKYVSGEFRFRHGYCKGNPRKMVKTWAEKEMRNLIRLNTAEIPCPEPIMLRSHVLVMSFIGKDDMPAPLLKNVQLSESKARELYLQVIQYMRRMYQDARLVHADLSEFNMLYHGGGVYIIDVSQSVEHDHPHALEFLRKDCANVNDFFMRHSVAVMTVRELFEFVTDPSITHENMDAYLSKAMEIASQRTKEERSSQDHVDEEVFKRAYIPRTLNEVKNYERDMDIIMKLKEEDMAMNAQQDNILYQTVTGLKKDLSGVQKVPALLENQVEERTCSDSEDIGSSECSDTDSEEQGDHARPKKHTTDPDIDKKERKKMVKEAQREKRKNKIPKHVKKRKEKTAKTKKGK
# PAK4 (human) = PAK4 (human) (UniProt O96013)
# Chain of PAK4 (human) (O96013 whole entry, looked up): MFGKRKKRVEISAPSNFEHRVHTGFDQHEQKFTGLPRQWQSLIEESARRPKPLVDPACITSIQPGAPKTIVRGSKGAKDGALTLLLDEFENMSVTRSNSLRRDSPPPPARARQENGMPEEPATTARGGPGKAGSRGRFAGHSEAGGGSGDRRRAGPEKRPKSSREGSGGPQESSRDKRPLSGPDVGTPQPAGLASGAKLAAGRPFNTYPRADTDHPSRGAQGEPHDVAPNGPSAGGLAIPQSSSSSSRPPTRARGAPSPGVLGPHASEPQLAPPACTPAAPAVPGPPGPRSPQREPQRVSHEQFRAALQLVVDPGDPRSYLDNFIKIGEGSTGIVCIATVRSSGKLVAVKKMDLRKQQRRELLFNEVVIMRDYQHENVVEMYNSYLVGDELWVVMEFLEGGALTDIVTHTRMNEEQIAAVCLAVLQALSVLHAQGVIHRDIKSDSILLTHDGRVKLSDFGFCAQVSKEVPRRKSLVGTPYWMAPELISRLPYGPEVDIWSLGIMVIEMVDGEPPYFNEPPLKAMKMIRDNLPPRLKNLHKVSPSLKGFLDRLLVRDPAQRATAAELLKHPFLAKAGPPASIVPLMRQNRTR
# RPS6KA4 KD2 (human) = RPS6KA4 KD2 (human) (UniProt O75676)
# CSNK1A1 (human) = CSNK1A1 (human) (UniProt P48729)
# PRKG2 (human) = PRKG2 (human) (UniProt Q13237)
# SBK1 (human) = SBK1 (human) (UniProt Q52WX2)
# NEK3 (human) = NEK3 (human) (UniProt P51956)
# IKBKE (human) = IKBKE (human) (UniProt Q14164)
# SIK2 (human) = SIK2 (human) (UniProt Q9H0K1)
# PRKCE (human) = PRKCE (human) (UniProt Q02156)
# [1] = test system: KIT (human), P10721 [D816V]
# ERN1 (human) = ERN1 (human) (UniProt O75460)
# PIK3CB (human) = PIK3CB (human) (UniProt P42338)
# PIK3CG (human) = PIK3CG (human) (UniProt P48736)
# AURKB (human) = AURKB (human) (UniProt Q96GD4)
# Chain of AURKB (human) (Q96GD4 whole entry, looked up): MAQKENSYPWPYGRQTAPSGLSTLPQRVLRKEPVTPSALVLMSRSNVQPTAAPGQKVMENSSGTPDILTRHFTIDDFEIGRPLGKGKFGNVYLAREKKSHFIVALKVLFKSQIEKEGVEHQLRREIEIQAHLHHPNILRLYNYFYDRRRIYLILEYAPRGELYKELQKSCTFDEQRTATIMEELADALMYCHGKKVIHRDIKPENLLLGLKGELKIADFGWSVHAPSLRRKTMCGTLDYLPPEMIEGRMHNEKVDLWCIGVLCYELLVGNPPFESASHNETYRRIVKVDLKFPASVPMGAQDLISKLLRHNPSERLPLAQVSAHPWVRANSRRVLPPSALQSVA
# DMPK (human) = DMPK (human) (UniProt Q09013)
# [2] = test system: KIT (human), P10721 [L576P]
# STK16 (human) = STK16 (human) (UniProt O75716)
# ACVRL1 (human) = ACVRL1 (human) (UniProt P37023)
# DAPK3 (human) = DAPK3 (human) (UniProt O43293)
# Chain of DAPK3 (human) (O43293 whole entry, looked up): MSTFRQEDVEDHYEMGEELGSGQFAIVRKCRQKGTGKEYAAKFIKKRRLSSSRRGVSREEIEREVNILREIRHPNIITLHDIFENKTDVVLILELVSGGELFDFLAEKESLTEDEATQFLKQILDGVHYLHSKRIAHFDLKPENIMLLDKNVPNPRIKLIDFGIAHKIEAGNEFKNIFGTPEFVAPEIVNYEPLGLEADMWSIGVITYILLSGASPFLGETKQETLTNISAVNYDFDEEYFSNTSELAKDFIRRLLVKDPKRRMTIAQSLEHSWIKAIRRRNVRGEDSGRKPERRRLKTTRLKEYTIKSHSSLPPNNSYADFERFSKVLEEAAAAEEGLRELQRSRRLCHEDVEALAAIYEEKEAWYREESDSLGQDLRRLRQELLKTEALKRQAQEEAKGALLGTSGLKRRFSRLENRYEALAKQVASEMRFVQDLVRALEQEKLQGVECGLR
# GRK1 (human) = GRK1 (human) (UniProt Q15835)
# CDK4 CCND3 (human) = CDK4 CCND3 (human) (UniProt P11802+P30281)
# PRKD1 (human) = PRKD1 (human) (UniProt Q15139)
# SIK1 (human) = SIK1 (human) (UniProt P57059)
# CSNK1G1 (human) = CSNK1G1 (human) (UniProt Q9HCP0)
# [3] = test system: PIK3CA (human), P42336 [E545A]
# Chain of PIK3CA (human), P42336 [E545A] (P42336 whole entry E545A, looked up): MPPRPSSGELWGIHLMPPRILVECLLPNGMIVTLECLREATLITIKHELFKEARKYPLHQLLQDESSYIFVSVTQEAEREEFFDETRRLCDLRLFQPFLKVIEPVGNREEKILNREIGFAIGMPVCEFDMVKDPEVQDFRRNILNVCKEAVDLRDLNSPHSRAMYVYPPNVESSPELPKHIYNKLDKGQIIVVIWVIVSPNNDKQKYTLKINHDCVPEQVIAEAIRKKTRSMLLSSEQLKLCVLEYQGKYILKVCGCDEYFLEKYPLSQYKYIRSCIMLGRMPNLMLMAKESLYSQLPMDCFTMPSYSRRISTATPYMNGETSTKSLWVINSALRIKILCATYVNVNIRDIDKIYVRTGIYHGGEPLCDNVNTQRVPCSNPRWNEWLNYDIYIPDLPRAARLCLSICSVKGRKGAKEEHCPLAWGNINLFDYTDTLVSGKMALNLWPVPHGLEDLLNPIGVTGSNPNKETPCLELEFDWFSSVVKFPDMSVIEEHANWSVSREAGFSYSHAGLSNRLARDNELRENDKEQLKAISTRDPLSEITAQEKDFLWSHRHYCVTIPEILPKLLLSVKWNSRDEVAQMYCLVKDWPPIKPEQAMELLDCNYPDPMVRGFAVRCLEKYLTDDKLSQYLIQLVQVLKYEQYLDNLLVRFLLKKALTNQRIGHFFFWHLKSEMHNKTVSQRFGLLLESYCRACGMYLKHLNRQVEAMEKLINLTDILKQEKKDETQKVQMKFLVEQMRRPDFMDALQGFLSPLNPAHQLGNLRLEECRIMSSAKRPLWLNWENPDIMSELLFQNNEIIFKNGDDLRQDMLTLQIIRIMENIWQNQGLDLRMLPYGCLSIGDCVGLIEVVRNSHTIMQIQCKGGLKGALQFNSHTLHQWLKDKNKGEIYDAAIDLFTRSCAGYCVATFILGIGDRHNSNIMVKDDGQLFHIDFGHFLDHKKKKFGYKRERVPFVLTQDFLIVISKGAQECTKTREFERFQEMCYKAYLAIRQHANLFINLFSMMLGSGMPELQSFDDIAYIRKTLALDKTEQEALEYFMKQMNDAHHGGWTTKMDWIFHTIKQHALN
# CDKL5 (human) = CDKL5 (human) (UniProt O76039)
# Chain of CDKL5 (human) (O76039 whole entry, looked up): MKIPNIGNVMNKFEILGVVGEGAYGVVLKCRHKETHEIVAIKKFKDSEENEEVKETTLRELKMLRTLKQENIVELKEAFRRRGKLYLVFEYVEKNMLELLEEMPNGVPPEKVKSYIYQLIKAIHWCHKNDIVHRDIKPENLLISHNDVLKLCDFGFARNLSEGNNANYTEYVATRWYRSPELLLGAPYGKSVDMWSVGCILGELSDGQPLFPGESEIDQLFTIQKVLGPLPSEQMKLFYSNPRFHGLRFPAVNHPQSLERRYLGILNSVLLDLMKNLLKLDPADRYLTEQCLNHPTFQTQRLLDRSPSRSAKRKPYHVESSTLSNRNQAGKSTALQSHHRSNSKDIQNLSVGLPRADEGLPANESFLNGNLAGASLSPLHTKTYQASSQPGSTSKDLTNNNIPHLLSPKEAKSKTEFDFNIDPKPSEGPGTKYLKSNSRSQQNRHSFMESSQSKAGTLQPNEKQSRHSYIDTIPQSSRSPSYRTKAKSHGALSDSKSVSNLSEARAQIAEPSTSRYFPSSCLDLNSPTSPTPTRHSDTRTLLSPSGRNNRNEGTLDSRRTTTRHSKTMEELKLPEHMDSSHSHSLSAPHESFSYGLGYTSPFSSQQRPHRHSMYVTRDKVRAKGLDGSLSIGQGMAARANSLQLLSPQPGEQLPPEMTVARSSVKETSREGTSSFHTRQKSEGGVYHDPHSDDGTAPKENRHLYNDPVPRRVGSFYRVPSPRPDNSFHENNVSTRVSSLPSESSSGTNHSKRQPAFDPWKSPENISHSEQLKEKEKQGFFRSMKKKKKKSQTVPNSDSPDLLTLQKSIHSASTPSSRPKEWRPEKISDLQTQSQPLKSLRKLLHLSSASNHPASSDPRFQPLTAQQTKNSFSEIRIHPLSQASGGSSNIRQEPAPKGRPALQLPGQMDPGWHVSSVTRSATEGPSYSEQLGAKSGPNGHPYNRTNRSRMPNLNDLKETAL
# PKMYT1 (human) = PKMYT1 (human) (UniProt Q99640)
# Chain of PKMYT1 (human) (Q99640 whole entry, looked up): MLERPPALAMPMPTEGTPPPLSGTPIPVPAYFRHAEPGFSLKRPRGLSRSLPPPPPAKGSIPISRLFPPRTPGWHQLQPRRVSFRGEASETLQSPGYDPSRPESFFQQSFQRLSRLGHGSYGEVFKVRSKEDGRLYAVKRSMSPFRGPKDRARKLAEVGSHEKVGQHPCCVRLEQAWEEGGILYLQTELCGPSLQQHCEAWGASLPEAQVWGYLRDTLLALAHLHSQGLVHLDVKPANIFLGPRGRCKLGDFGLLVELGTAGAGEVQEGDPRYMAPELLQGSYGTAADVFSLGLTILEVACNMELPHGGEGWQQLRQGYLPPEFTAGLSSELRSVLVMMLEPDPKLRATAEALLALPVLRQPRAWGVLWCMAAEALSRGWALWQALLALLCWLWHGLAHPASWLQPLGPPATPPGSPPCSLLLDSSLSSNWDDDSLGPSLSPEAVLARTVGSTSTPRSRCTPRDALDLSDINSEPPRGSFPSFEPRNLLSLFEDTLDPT
# NEK7 (human) = NEK7 (human) (UniProt Q8TDX7)
# MAP4K1 (human) = MAP4K1 (human) (UniProt Q92918)
# PTK6 (human) = PTK6 (human) (UniProt Q13882)
# AKT1 (human) = AKT1 (human) (UniProt P31749)
# PAK3 (human) = PAK3 (human) (UniProt O75914)
# RIPK4 (human) = RIPK4 (human) (UniProt P57078)
# MELK (human) = MELK (human) (UniProt Q14680)
# HIPK1 (human) = HIPK1 (human) (UniProt Q86Z02)
# Chain of CAMK1G (human) (Q96NX5 whole entry, looked up): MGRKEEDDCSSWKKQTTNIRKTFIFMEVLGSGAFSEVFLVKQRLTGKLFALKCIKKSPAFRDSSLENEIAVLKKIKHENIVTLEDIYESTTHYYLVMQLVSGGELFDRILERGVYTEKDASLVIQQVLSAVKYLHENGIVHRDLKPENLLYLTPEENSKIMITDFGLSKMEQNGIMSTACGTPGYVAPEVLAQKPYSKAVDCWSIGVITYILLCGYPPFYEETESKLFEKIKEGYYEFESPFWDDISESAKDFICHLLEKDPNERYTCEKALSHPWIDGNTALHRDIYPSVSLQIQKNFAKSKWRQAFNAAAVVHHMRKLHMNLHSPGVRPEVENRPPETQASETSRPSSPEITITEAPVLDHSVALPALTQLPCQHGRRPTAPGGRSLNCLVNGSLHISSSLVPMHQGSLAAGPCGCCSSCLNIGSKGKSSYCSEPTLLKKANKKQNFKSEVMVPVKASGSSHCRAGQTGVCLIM
smiles,measurement,setting,value
Cc1cc(NC(=O)c2cccc(NC(=O)/C=C/CN(C)C)c2)ccc1Nc1nccc(-c2cccnc2)n1,"kinase still bound, per cent of control",PLK4 (human),58%
same,"kinase still bound, per cent of control",PIK3C2B (human),100%
same,"kinase still bound, per cent of control",CAMK1G (human),100%
same,"kinase still bound, per cent of control",NEK6 (human),100%
same,"kinase still bound, per cent of control",PRKX (human),0%
same,"kinase still bound, per cent of control",AURKC (human),95%
same,"kinase still bound, per cent of control",BRAF (human),90%
same,"kinase still bound, per cent of control",RIOK1 (human),100%
same,"kinase still bound, per cent of control",PAK4 (human),100%
same,"kinase still bound, per cent of control",RPS6KA4 KD2 (human),74%
same,"kinase still bound, per cent of control",CSNK1A1 (human),73%
same,"kinase still bound, per cent of control",PRKG2 (human),97%
same,"kinase still bound, per cent of control",SBK1 (human),96%
same,"kinase still bound, per cent of control",NEK3 (human),73%
same,"kinase still bound, per cent of control",IKBKE (human),91%
same,"kinase still bound, per cent of control",SIK2 (human),88%
same,"kinase still bound, per cent of control",PRKCE (human),81%
same,"kinase still bound, per cent of control",[1],54%
same,"kinase still bound, per cent of control",ERN1 (human),73%
same,"kinase still bound, per cent of control",PIK3CB (human),79%
same,"kinase still bound, per cent of control",PIK3CG (human),100%
same,"kinase still bound, per cent of control",AURKB (human),82%
same,"kinase still bound, per cent of control",DMPK (human),63%
same,"kinase still bound, per cent of control",[2],100%
same,"kinase still bound, per cent of control",STK16 (human),61%
same,"kinase still bound, per cent of control",ACVRL1 (human),96%
same,"kinase still bound, per cent of control",DAPK3 (human),100%
same,"kinase still bound, per cent of control",GRK1 (human),100%
same,"kinase still bound, per cent of control",CDK4 CCND3 (human),60%
same,"kinase still bound, per cent of control",PRKD1 (human),100%
same,"kinase still bound, per cent of control",SIK1 (human),100%
same,"kinase still bound, per cent of control",CSNK1G1 (human),100%
same,"kinase still bound, per cent of control",[3],95%
same,"kinase still bound, per cent of control",CDKL5 (human),100%
same,"kinase still bound, per cent of control",PKMYT1 (human),69%
same,"kinase still bound, per cent of control",NEK7 (human),100%
same,"kinase still bound, per cent of control",MAP4K1 (human),89%
same,"kinase still bound, per cent of control",PTK6 (human),100%
same,"kinase still bound, per cent of control",AKT1 (human),100%
same,"kinase still bound, per cent of control",PAK3 (human),100%
same,"kinase still bound, per cent of control",RIPK4 (human),79%
same,"kinase still bound, per cent of control",MELK (human),71%
same,"kinase still bound, per cent of control",HIPK1 (human),100%
